According to ChEMBL document CHEMBL1287665, “Design, synthesis and inhibitory effect of pentapeptidyl chloromethyl ketones on proteinase K” (Bioorg Med Chem, 2010):
Calls of active or inactive are those of the source.

Key:
Conditions in all cases: Parengyodontium album
[1] = molecular target: Proteinase K (Engyodontium album) (UniProt P06873); experiment: Inhibition of Engyodontium album proteinase K proteolytic activity in human HeLa cell lysate using beta-actin primer/probes of TaqMan gene expression Cells-to-CT kit at 0.5 mM after 60 mins by qRT-PCR analysis; type: cell-free
[2] = molecular target: Proteinase K (Engyodontium album) (UniProt P06873); experiment: Inhibition of Engyodontium album proteinase K proteolytic activity assessed as digestion of bovine serum albumin at 0.75 mM after 10 mins using coomassie blue staining by protein gel analysis
[3] = molecular target: Proteinase K (Engyodontium album) (UniProt P06873); experiment: Inhibition of Engyodontium album proteinase K proteolytic activity assessed as concentration required to obtain cycle threshold 26 using TaqMan gene expression Cells-to-CT kit after 60 mins by qRT-PCR analysis
[4] = molecular target: Proteinase K (Engyodontium album) (UniProt P06873); experiment: Inhibition of Engyodontium album proteinase K proteolytic activity in human HeLa cell lysate using beta-actin primer/probes of TaqMan gene expression Cells-to-CT kit at 0.10 mM after 60 mins by qRT-PCR analysis; type: cell-free
[5] = molecular target: Proteinase K (Engyodontium album) (UniProt P06873); experiment: Inhibition of Engyodontium album proteinase K proteolytic activity assessed as digestion of bovine serum albumin at 0.25 mM after 10 mins using coomassie blue staining by protein gel analysis
[6] = molecular target: Proteinase K (Engyodontium album) (UniProt P06873); experiment: Ratio of compound to MeO-Suc-AAAPV-CH2Cl for inhibition of Engyodontium album proteinase K proteolytic activity assessed as concentration required to obtain cycle threshold 26 using TaqMan gene expression Cells-to-CT kit after 60 mins by RT-PCR analysis

Chain of Proteinase K (Engyodontium album) (P06873 whole entry): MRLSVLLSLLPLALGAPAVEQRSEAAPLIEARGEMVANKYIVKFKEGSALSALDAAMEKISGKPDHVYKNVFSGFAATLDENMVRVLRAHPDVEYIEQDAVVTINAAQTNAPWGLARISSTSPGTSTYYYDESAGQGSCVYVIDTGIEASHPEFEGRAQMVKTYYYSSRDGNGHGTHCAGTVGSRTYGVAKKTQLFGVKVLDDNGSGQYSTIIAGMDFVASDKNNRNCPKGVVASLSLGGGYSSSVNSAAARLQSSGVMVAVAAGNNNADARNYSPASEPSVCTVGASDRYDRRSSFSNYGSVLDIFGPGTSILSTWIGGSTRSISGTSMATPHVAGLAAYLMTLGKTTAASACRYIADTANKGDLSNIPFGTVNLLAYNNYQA

inhibition [1] | inhibition [2] | Activity [3] | inhibition [4] | inhibition [5] | Ratio [6] | SMILES
Active | inactive |  |  |  |  | COC(=O)CCC(=O)N[C@@H](C)C(=O)N[C@H](C)C(=O)N[C@@H](C)C(=O)N1CCC[C@H]1C(=O)N[C@@H](C(=O)CCl)C(C)C
 |  | 0.1 mM | Active | Active | 7.5 | COC(=O)CCC(=O)N[C@@H](C)C(=O)N[C@H](C)C(=O)N[C@@H](C)C(=O)N1CCC[C@H]1C(=O)N[C@H](Cc1ccccc1)C(=O)CCl
